Experiment in all cases: biochemical
Test [1] concerns the target recombinant wildtype and mutated PPO (Amaranthus PPO2: PPX2L_WC SEQ ID NO 2, PPX2L_AC SEQ ID NO 4, dG210 SEQ ID NO 6 & 8) (Amaranthus tuberculatus, UniProt Q0NZW9, D133A/F420I/R128H). As to conditions: IC50 (M).
In test [2] the target is T1, recombinant wildtype and mutated PPO (Amaranthus PPO2: PPX2L_WC SEQ ID NO 2, PPX2L_AC SEQ ID NO 4, dG210 SEQ ID NO 6 & 8) (Amaranthus tuberculatus, UniProt Q0NZW9, D133A/F420M/R128Y).
T1 sequence (Q0NZW9 1-534 R128Y/D133A/F420M): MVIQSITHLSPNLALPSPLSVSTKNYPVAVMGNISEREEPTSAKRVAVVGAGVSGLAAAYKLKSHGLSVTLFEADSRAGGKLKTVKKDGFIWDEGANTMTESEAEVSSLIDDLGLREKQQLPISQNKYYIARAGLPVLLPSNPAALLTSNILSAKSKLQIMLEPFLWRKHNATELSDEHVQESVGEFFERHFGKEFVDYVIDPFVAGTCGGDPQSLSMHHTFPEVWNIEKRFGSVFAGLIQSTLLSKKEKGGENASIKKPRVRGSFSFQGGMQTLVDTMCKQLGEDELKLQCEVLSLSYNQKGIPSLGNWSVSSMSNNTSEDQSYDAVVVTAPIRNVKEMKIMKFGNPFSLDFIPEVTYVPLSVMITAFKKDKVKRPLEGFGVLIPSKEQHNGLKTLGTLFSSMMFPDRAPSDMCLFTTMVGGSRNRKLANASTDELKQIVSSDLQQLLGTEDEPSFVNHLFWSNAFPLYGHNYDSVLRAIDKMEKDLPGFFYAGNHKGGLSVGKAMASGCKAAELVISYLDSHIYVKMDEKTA
As to conditions: IC50 (M).

Test [3] deals with T2, recombinant wildtype and mutated PPO (Amaranthus PPO2: PPX2L_WC SEQ ID NO 2, PPX2L_AC SEQ ID NO 4, dG210 SEQ ID NO 6 & 8) (Amaranthus tuberculatus, UniProt Q0NZW9, D133A/F420L/R128I).
T2 sequence (Q0NZW9 1-534 R128I/D133A/F420L): T1 sequence (Q0NZW9 1-534 R128Y/D133A/F420M) with Y128I, M420L
As to conditions: IC50 (M).

For test [4], the target named is recombinant wildtype and mutated PPO (Amaranthus PPO2: PPX2L_WC SEQ ID NO 2, PPX2L_AC SEQ ID NO 4, dG210 SEQ ID NO 6 & 8) (Amaranthus tuberculatus, UniProt Q0NZW9, D133A/F420L/R128C). As to conditions: IC50 (M).
recombinant wildtype and mutated PPO (Amaranthus PPO2: PPX2L_WC SEQ ID NO 2, PPX2L_AC SEQ ID NO 4, dG210 SEQ ID NO 6 & 8) (Amaranthus tuberculatus, UniProt Q0NZW9, D133A/F420L/R128C), sequence (Q0NZW9 1-534 R128C/D133A/F420L): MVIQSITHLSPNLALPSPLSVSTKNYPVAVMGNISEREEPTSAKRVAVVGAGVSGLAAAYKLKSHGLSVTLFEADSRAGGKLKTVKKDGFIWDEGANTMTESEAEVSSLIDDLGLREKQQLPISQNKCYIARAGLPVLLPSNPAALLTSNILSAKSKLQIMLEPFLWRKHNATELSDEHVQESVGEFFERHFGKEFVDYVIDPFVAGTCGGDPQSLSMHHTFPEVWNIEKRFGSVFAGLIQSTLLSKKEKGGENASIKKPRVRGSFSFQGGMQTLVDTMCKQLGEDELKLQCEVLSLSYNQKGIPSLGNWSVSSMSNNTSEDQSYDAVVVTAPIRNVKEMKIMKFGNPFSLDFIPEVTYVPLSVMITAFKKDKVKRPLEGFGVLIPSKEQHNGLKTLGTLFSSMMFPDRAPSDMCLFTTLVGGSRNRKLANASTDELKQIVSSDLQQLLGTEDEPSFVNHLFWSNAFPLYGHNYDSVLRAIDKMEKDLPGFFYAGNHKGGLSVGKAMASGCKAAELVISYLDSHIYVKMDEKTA
Test [5] addresses recombinant wildtype and mutated PPO (Amaranthus PPO2: PPX2L_WC SEQ ID NO 2, PPX2L_AC SEQ ID NO 4, dG210 SEQ ID NO 6 & 8) (Amaranthus tuberculatus, UniProt Q0NZW9, D133A/F420M/R128V). As to conditions: IC50 (M).
The target of test [6] is T3, recombinant wildtype and mutated PPO (Amaranthus PPO2: PPX2L_WC SEQ ID NO 2, PPX2L_AC SEQ ID NO 4, dG210 SEQ ID NO 6 & 8) (Amaranthus tuberculatus, UniProt Q0NZW9, R128A/F420L, form not given).
T3 sequence (Q0NZW9 1-534 R128A/F420L): T1 sequence (Q0NZW9 1-534 R128Y/D133A/F420M) with Y128A, A133D, M420L

Where a chain is given by its changes, count along the chain named. Several values for one entry are separate records, joined by “and”; a condition that tells them apart may be missing. Equal entries are not always repeated.

recombinant wildtype and mutated PPO (Amaranthus PPO2: PPX2L_WC SEQ ID NO 2, PPX2L_AC SEQ ID NO 4, dG210 SEQ ID NO 6 & 8) (Amaranthus tuberculatus, UniProt Q0NZW9, D133A/F420M/R128V), sequence (Q0NZW9 1-534 R128V/D133A/F420M): as the sequence (Q0NZW9 1-534 R128C/D133A/F420L) above, with C128V, L420M counted along it
recombinant wildtype and mutated PPO (Amaranthus PPO2: PPX2L_WC SEQ ID NO 2, PPX2L_AC SEQ ID NO 4, dG210 SEQ ID NO 6 & 8) (Amaranthus tuberculatus, UniProt Q0NZW9, D133A/F420I/R128H), sequence (Q0NZW9 1-534 R128H/D133A/F420I): as the sequence (Q0NZW9 1-534 R128C/D133A/F420L) above, with C128H, L420I counted along it

What is called IC50 is the point on the concentration scale where inhibition reaches its midpoint. Take `C#CCN1C(=O)C(F)(F)Oc2cc(F)c(-n3c(=O)n(C)c(=S)n(C)c3=O)cc21`: the IC50 in test [1] is 8.22e-08 M; in test [2] it was 2.85e-07 M and 1.02e-07 M; in test [3], 4.05e-07 M and 2.45e-07 M; in test [4], 1e-07 M and 1.83e-07 M; in test [5] it was 6.5e-08 M and 4.86e-08 M.

In the case of `C#CCN1C(=O)C(F)(F)Oc2cc(F)c(-n3c(=O)cc(C(F)(F)F)n(C)c3=O)cc21`, the IC50 in test [6] is 16.2 nM; in test [2] it was 1.13e-07 M; in test [3] it was 2.69e-07 M; in test [4], 6.72e-08 M; in test [5], 4.65e-08 M.

`C#CCN1C(=O)C(F)(F)Oc2cc(F)c(N3C(=O)C4=C(CCCC4)C3=O)cc21`: the IC50 was 11400 nM in test [6]; not below 1e-05 M in test [2]; not below 1e-05 M in test [3]; not below 1e-05 M in test [4]; 3.11e-06 M in test [5].

In the case of `COC(Oc1ccccc1Oc1cc(-n2c(=O)cc(C(F)(F)F)n(C)c2=O)c(F)cc1Cl)C(=O)OC1CCCCC1` (stereo not shown), the IC50 worked out at 1.31e-06 M in test [1], 93.7 nM in test [6], 1.07e-07 M in test [3] and 1.49e-08 M in test [5].

Take `COC(=O)C(OC)Oc1ccccc1Oc1cc(-n2c(=O)cc(C(F)(F)F)n(C)c2=O)c(F)cc1Cl` (stereo not shown): the IC50 in test [1] is 7.54e-08 M; in test [6] it was 47 nM; in test [3], 7.13e-08 M; in test [5], 1.49e-08 M.

On to `CCOC(=O)COc1ncccc1Oc1cc(-n2c(=O)cc(C(F)(F)F)n(C)c2=O)c(F)cc1Cl` [A.13, ethyl [3-[2-chloro-4-fluoro-5-(1-methyl-6-trifluoromethyl-2,4-dioxo-1,2,3,4-tetrahydropyrimidin-3-yl)phenoxy]-2-pyridyloxy]acetate], for which the IC50 stood at 8.92e-08 M in test [2], 2.01e-07 M in test [3], 6.81e-07 M in test [4] and 3.58e-08 M in test [5].

Consider `O=C(O)c1cc(Oc2ccc(C(F)(F)F)cc2Cl)ccc1[N+](=O)[O-]` [ACIFLUORFEN], for which the IC50 in test [2], in test [3], in test [4] and in test [5] was not below 1e-05 M each time.

Consider `C=CCOC(=O)C(C)(C)OC(=O)c1cc(-n2c(=O)cc(C(F)(F)F)n(C)c2=O)ccc1Cl` [BUTAFENACIL], for which the IC50 in test [2] worked out at 5.04e-08 M; in test [3] it was 8.02e-08 M; in test [4] it was 1.1e-07 M; in test [5] it was 1.05e-08 M.

With `CCOC(=O)C(Cl)Cc1cc(-n2nc(C)n(C(F)F)c2=O)c(F)cc1Cl` (stereo not shown) [CARFENTRAZONE-ETHYL], the IC50 is 8.52e-08 M in test [2], 1.61e-07 M in test [3], 3.08e-07 M in test [4] and 2.29e-08 M in test [5].

As for `C#CCN1C(=O)COc2cc(F)c(N3C(=O)C4=C(CCCC4)C3=O)cc21` [Flumioxazin, flumioxazin], the IC50 in test [2], in test [3], in test [4] and in test [5] was not below 1e-05 M throughout.

In the case of `CS(=O)(=O)NC(=O)c1cc(Oc2ccc(C(F)(F)F)cc2Cl)ccc1[N+](=O)[O-]` [Fomesafen, fomesafen], the IC50 in test [2], in test [3], in test [4] and in test [5] was not below 1e-05 M in each case.

Consider `CCOC(=O)C(C)OC(=O)c1cc(Oc2ccc(C(F)(F)F)cc2Cl)ccc1[N+](=O)[O-]` (stereo not shown) [Lactofen, lactofen], for which the IC50 in test [2] was 1.43e-07 M; in test [3] it was 1.3e-07 M; in test [4], 1.42e-07 M; in test [5], 9.41e-08 M.

As for `CCOc1cc(Oc2ccc(C(F)(F)F)cc2Cl)ccc1[N+](=O)[O-]` [OXIFLUORFEN], the IC50 amounted to 1.13e-06 M in test [2], 4.21e-06 M in test [3], 1.49e-06 M in test [4] and 1.05e-06 M in test [5].

The values are drawn from US11866720B2, “Transgenic or non-transgenic plants with mutated protoporphyrinogen oxidase having increased tolerance to herbicides” (priority 2013, dated 2024).
